Measurements taken from EPA's ToxValDB 9.5 (doi:10.2903/j.efsa.2005.33ar).

Columns and labels:
Bird = settings: acute; oral; unspecified; mortality
Aphidius rhopalosiphi = settings: not reported; mortality
Apis mellifera = settings: acute, dermal, mortality
Rattus norvegicus = settings: for NOAEL: reproduction developmental
Canidae = settings: chronic; duration: 1 years; Dog Other; body weight
Daphnia magna = settings: chronic/long-term; duration: 21 days; mobility
Landoltia sp. = settings: chronic/long-term; biomass
Bibionidae = settings: chronic/long-term; duration: 26 days
Oryctolagus sp. = settings: reproduction developmental; body weight

**Q.** `CC1(C)CC/C(=C\c2ccc(Cl)cc2)C1(O)Cn1cncn1` (stereo not drawn) [Triticonazole] was tested. Which LD50 (Colinus virginianus; acute, oral, diet, mortality) did it give?
**A.** The LD50 was greater than 693 mg/kg.

**Q.** And the NOAEL (Colinus virginianus; reproduction developmental)?
**A.** Its NOAEL is 19.5 mg/kg-day.

**Q.** And the LD50 (Bird)?
**A.** The LD50 was greater than 2000 mg/kg.

**Q.** What about the LEL (Aphidius rhopalosiphi) of the same molecule?
**A.** Its LEL is 25 g/ha.

**Q.** What about the LD50 (Apis mellifera) of the same molecule?
**A.** The LD50 was greater than 156 µg/piece.

**Q.** And the LD50 (Apis mellifera; duration: 48 hours)?
**A.** The LD50 was greater than 100 µg/piece.

**Q.** What about the LD50 (Rattus norvegicus; acute, mortality) of the same molecule?
**A.** The LD50 was greater than 2000 mg/kg.

**Q.** What about the NOAEL (Rattus norvegicus; F) of the same molecule?
**A.** Its NOAEL is 48 mg/kg-day.

**Q.** What about the NOAEL (Rattus norvegicus; M) of the same molecule?
**A.** The NOAEL was 49 mg/kg-day.

**Q.** What about the LC50 (Tagia sp.; acute, duration: 14 days, mortality) of the same molecule?
**A.** Its LC50 is greater than 1000 mg/kg.

**Q.** And the NOEC (Tagia sp.; chronic/long-term, duration: 56 days, reproduction)?
**A.** Its NOEC is 500 mg/kg.

**Q.** And the NOAEL (Canidae)?
**A.** The NOAEL was 2.5 mg/kg-day.

**Q.** What about the LC50 (Oncorhynchus mykiss; acute, duration: 96 hours, mortality) of the same molecule?
**A.** The LC50 was greater than 3.6 µg/mL.

**Q.** And the NOEC (Oncorhynchus mykiss; chronic/long-term, duration: 28 days, growth)?
**A.** The NOEC was 0.01 mg/L.

**Q.** What about the NOEC (Daphnia magna) of the same molecule?
**A.** Its NOEC is 0.092 mg/L.

**Q.** And the NOEC (Landoltia sp.)?
**A.** The NOEC was 0.33 mg/L.

**Q.** What about the NOEC (Bibionidae) of the same molecule?
**A.** Its NOEC is 0.0777 mg/L.

**Q.** What about the NOAEL (Oryctolagus sp.) of the same molecule?
**A.** The NOAEL was 5 mg/kg-day.
